pEC50: −log10 of the molar value.
Target: T1, CFTR (F508del/MF-HBE cells) (Homo sapiens, UniProt P13569, DEL508-508)
T1 construct: human bronchial epithelial (HBE) cells derived from CF subjects heterozygous for F508del and a minimal function CFTR mutation; endogenous in cells; host or cells: primary human bronchial epithelial cells from CF subjects (F508del/MF genotype)
Experiment: Ussing chamber assay of CFTR-mediated short-circuit currents (identification of potentiator compounds)
Type: cell-based
Settings: CFTR-mediated ISC in F508del/MF-HBE cells; incubated 18-24 hours at 37° C. with 10 μM (14S)-8-[3-(2-{dispiro[2.0.2.1]heptan-7-yl}ethoxy)-1H-pyrazol-1-yl]-...-2,2,4-trione, 20% human serum
Summary of the method: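 Short-circuit current was voltage-clamped at 0 mV and 37 °C in pH 7.4 HEPES buffers, with amiloride (30 μM) on the apical side. The CFTR component was defined as forskolin (20 μM) peak minus residual current after BPO/GlyH-101/CFTRinh-172 at 20 μM each. Cells had been pretreated 18–24 h with potentiator concentrations and 10 μM corrector in 20% human serum, kept throughout the measurement.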

T1 sequence (P13569 with tags, fused parts or gaps DEL508-508): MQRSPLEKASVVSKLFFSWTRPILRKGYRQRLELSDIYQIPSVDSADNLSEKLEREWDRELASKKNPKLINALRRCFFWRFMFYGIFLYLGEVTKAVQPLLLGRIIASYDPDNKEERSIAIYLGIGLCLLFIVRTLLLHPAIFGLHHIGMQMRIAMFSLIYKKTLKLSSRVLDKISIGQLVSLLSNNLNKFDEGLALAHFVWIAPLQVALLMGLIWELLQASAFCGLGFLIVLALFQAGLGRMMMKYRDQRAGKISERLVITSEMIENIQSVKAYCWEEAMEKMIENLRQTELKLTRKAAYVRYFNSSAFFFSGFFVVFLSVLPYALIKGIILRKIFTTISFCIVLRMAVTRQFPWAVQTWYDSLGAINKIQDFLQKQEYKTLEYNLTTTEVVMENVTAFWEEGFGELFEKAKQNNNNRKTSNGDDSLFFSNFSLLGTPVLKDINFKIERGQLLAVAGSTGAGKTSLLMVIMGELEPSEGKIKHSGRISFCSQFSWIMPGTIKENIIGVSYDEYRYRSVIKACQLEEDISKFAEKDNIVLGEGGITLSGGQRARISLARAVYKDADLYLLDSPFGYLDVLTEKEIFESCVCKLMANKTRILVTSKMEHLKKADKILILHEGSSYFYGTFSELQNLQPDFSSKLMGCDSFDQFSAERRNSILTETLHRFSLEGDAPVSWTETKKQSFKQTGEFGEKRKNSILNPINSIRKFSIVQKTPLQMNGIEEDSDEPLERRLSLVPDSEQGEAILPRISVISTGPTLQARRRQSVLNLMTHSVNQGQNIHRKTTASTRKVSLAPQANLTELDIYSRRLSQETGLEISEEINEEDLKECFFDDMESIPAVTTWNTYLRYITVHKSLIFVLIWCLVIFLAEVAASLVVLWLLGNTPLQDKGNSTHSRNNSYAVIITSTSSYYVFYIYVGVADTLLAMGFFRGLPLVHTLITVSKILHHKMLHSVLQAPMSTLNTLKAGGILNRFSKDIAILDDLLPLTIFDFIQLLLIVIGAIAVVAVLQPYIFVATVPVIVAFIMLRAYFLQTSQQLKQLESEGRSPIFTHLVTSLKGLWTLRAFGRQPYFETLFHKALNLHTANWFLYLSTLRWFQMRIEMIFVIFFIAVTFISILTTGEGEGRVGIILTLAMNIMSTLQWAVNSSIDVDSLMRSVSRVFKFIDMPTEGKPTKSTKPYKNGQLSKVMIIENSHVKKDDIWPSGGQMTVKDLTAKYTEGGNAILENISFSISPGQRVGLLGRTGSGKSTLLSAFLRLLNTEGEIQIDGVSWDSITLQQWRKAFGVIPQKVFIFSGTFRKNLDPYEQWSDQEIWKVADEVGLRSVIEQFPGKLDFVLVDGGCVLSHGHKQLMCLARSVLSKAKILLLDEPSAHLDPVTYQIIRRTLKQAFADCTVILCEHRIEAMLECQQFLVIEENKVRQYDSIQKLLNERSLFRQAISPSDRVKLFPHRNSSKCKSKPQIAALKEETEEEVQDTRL

pEC50 | SMILES
> 6.30 | CC1(C)CCCOCC(O)(C(F)(F)F)C2=NN=C(O2)c2nc(c(C(F)(F)F)cc2N)N1 (single isomer, unassigned) [Compound 197, 17-amino-12,12-dimethyl-6,15-bis(trifluoromethyl)-8,19-dioxa-3,4,13,18-tetrazatricyclo[12.3.1.12,5]nonadeca-1(18),2,4,14,16-pentaen-6-ol]
> 6.30 | CC1(C)COCCCC(O)(C(F)(F)F)C2=NN=C(O2)c2nc(c(C(F)(F)F)cc2N)N1 (single isomer, unassigned) [Compound 199, 17-amino-12,12-dimethyl-6,15-bis(trifluoromethyl)-10,19-dioxa-3,4,13,18-tetrazatricyclo[12.3.1.12,5]nonadeca-1(18),2,4,14,16-pentaen-6-ol]
> 6.30 | Nc1cc(C(F)(F)F)c2nc1-c1nnc(o1)[C@@](O)(C(F)(F)F)CCCCCC(c1ncccn1)N2 (single isomer, unassigned) [Compound 201]
> 6.30 | CC1(C)Nc2nc(c(N)cc2C(F)(F)F)C2=NN=C(O2)[C@@](O)(C(F)(F)F)CCCCC1O (single isomer, unassigned) [Compound 203]
> 6.30 | CC1(C)Nc2nc(c(N)cc2C(F)(F)F)C2=NN=C(O2)[C@@](O)(C(F)(F)F)CCCCC1O (single isomer, unassigned) [Compound 204]
> 6.30 | Nc1cc(C(F)(F)F)c2nc1-c1nnc(o1)[C@@](O)(C(F)(F)F)CCCCCC1(CCOC1)N2 (single isomer, unassigned) [Compound 207]
> 6.30 | Nc1cc(C(F)(F)F)c2nc1-c1nnc(o1)[C@@](O)(C(F)(F)F)CCCCCC1(CCOC1)N2 (single isomer, unassigned) [Compound 208]
> 6.30 | Nc1cc(C(F)(F)F)c2nc1-c1nnc(o1)[C@@](O)(C(F)(F)F)CCCCC[C@@H]1CCCN21 [Compound 4, (6R,12R)-20-amino-6,18-bis(trifluoromethyl)-22-oxa-3,4,16,21-tetraazatetracyclo[15.3.1.12,5.012,16]docosa-1(21),2,4,17,19-pentaen-6-ol]
< 6.00 | Nc1cc(C(F)(F)F)c2nc1-c1nnc(o1)[C@](O)(C(F)(F)F)CCCCC[C@@H]1CCCN21 [Compound 5, (6S,12R)-20-amino-6,18-bis(trifluoromethyl)-22-oxa-3,4,16,21-tetraazatetracyclo[15.3.1.12,5.012,16]docosa-1(21),2,4,17,19-pentaen-6-ol]
> 6.30 | Nc1cc(C(F)(F)F)c2nc1-c1nnc(o1)C(O)(C(F)(F)F)CCCCC1CCN2C1 (centres unmarked) [Compound 8, 16-amino-10,18-bis(trifluoromethyl)-20-oxa-2,12,13,19-tetraazatetracyclo[13.3.1.12,5.111,14]henicosa-1(19),11,13,15,17-pentaen-10-ol]
> 6.30 | Nc1cc(C(F)(F)F)c2nc1-c1nnc(o1)C(O)(C(F)(F)F)CCCCC1CCN2C1 (centres unmarked) [Compound 9, 16-amino-10,18-bis(trifluoromethyl)-20-oxa-2,12,13,19-tetraazatetracyclo[13.3.1.12,5.111,14]henicosa-1(19),11,13,15,17-pentaen-10-ol]
< 6.00 | Nc1cc(C(F)(F)F)c2nc1-c1nnc(o1)/C(C(F)(F)F)=C\CCCC[C@@H]1CCCN21 [Compound 10, (6E,12R)-6,18-bis(trifluoromethyl)-22-oxa-3,4,16,21-tetraazatetracyclo[15.3.1.12,5.012,16]docosa-1(21),2,4,6,17,19-hexaen-20-amine]
> 6.30 | CNc1cc(C(F)(F)F)c2nc1-c1nnc(o1)[C@@](O)(C(F)(F)F)CCCCC[C@@H]1CCCN21 [Compound 13, (6R,12R)-20-(methylamino)-6,18-bis(trifluoromethyl)-22-oxa-3,4,16,21-tetraazatetracyclo[15.3.1.12,5.012,16]docosa-1(21),2,4,17,19-pentaen-6-ol]
> 6.30 | CCNc1cc(C(F)(F)F)c2nc1-c1nnc(o1)[C@@](O)(C(F)(F)F)CCCCC[C@@H]1CCCN21 [Compound 14, (6R,12R)-20-(ethylamino)-6,18-bis(trifluoromethyl)-22-oxa-3,4,16,21-tetraazatetracyclo[15.3.1.12,5.012,16]docosa-1(21),2,4,17,19-pentaen-6-ol]
< 6.00 | CNc1cc(C(F)(F)F)c2nc1-c1nnc(o1)[C@](O)(C(F)(F)F)CCCCC[C@@H]1CCCN21 [Compound 15, (6S,12R)-20-(methylamino)-6,18-bis(trifluoromethyl)-22-oxa-3,4,16,21-tetraazatetracyclo[15.3.1.12,5.012,16]docosa-1(21),2,4,17,19-pentaen-6-ol]
< 6.00 | CCNc1cc(C(F)(F)F)c2nc1-c1nnc(o1)[C@](O)(C(F)(F)F)CCCCC[C@@H]1CCCN21 [Compound 16, (6S,12R)-20-(ethylamino)-6,18-bis(trifluoromethyl)-22-oxa-3,4,16,21-tetraazatetracyclo[15.3.1.12,5.012,16]docosa-1(21),2,4,17,19-pentaen-6-ol]
> 6.30 | Nc1cc(C(F)(F)F)c2nc1-c1nnc(o1)C(O)(C(F)(F)F)CCCCC1CCCN21 (centres unmarked) [Compound 17, 19-amino-6,17-bis(trifluoromethyl)-21-oxa-3,4,15,20-tetraazatetracyclo[14.3.1.12,5.011,15]henicosa-1(20),2,4,16,18-pentaen-6-ol]
> 6.30 | Nc1cc(C(F)(F)F)c2nc1-c1nnc(o1)C(O)(C(F)(F)F)CCCCC1CCCN21 (centres unmarked) [Compound 18, 19-amino-6,17-bis(trifluoromethyl)-21-oxa-3,4,15,20-tetraazatetracyclo[14.3.1.12,5.011,15]henicosa-1(20),2,4,16,18-pentaen-6-ol]
> 6.30 | Nc1cc(C(F)(F)F)c2nc1-c1nnc(o1)C(=NO)CCCCC[C@@H]1CCCN21 [Compound 31, (12R)-6-(hydroxyimino)-18-(trifluoromethyl)-22-oxa-3,4,16,21-tetraazatetracyclo[15.3.1.12,5.012,16]docosa-1(21),2,4,17,19-pentaen-20-amine]
> 6.30 | Nc1cc(C(F)(F)F)c2nc1-c1nnc(o1)C(=O)CCCCC[C@@H]1CCCN21 [Compound 36, (12R)-20-amino-18-(trifluoromethyl)-22-oxa-3,4,16,21-tetraazatetracyclo[15.3.1.12,5.012,16]docosa-1(21),2,4,17,19-pentaen-6-one]
> 6.30 | CN1CCCCCCC(=O)C2=NN=C(O2)c2nc1c(C(F)(F)F)cc2N [Compound 58, 17-amino-13-methyl-15-(trifluoromethyl)-19-oxa-3,4,13,18-tetrazatricyclo[12.3.1.12,5]nonadeca-1(18),2,4,14,16-pentaen-6-one]
> 6.30 | Nc1cc(C(F)(F)F)c2nc1-c1nnc(o1)[C@](O)(C(F)(F)F)c1cc(ccc1F)CCC[C@@H]1CCCN21 [Compound 59, (6S,15R)-23-amino-8-fluoro-6,21-bis(trifluoromethyl)-26-oxa-3,4,19,24-tetraazapentacyclo[18.3.1.12,5.17,11.015,19]hexacosa-1(24),2,4,7(25),8,10,20,22-octaen-6-ol]
> 6.30 | Nc1cc(C(F)(F)F)c2nc1-c1nnc(o1)[C@@](O)(C(F)(F)F)c1cc(ccc1F)CCC[C@@H]1CCCN21 [Compound 60, (6R,15R)-23-amino-8-fluoro-6,21-bis(trifluoromethyl)-26-oxa-3,4,19,24-tetraazapentacyclo[18.3.1.12,5.17,11.015,19]hexacosa-1(24),2,4,7(25),8,10,20,22-octaen-6-ol]
< 6.00 | Nc1cc(C(F)(F)F)c2nc1-c1nnc(o1)-c1c(O)cccc1CCCC[C@@H]1CCCN21 [Compound 134, (16R)-24-amino-22-(trifluoromethyl)-26-oxa-3,4,20,25-tetraazapentacyclo[19.3.1.12,5.06,11.016,20]hexacosa-1(25),2,4,6(11),7,9,21,23-octaen-7-ol]
> 6.30 | CC1(C)CC2CCCc3ccc(F)c(c3)C(O)(C(F)(F)F)C3=NN=C(O3)c3nc(c(C(F)(F)F)cc3N)N2C1 (centres unmarked) [Compound 135, 23-amino-8-fluoro-17,17-dimethyl-6,21-bis(trifluoromethyl)-26-oxa-3,4,19,24-tetraazapentacyclo[18.3.1.12,5.17,11.015,19]hexacosa-1(24),2,4,7(25),8,10,20,22-octaen-6-ol]
> 6.30 | CC1(C)CC2CCCc3ccc(F)c(c3)C(O)(C(F)(F)F)C3=NN=C(O3)c3nc(c(C(F)(F)F)cc3N)N2C1 (centres unmarked) [Compound 136, 23-amino-8-fluoro-17,17-dimethyl-6,21-bis(trifluoromethyl)-26-oxa-3,4,19,24-tetraazapentacyclo[18.3.1.12,5.17,11.015,19]hexacosa-1(24),2,4,7(25),8,10,20,22-octaen-6-ol]
> 6.30 | Nc1cc(Br)c2nc1-c1nnc(o1)C(O)(C(F)(F)F)CCCCC[C@@H]1CCCN21 (stereo partly drawn) [Compound 144, (12R)-20-amino-18-bromo-6-(trifluoromethyl)-22-oxa-3,4,16,21-tetraazatetracyclo[15.3.1.12,5.012,16]docosa-1(21),2,4,17,19-pentaen-6-ol]
> 6.30 | Nc1cc(Sc2ccc(OC(F)(F)F)cc2)c2nc1-c1nnc(o1)C(O)(C(F)(F)F)CCCCC[C@@H]1CCCN21 (stereo partly drawn) [Compound 146, (12R)-20-amino-18-{[4-(trifluoromethoxy)phenyl]sulfanyl}-6-(trifluoromethyl)-22-oxa-3,4,16,21-tetraazatetracyclo[15.3.1.12,5.012,16]docosa-1(21),2,4,17,19-pentaen-6-ol]
> 6.30 | Nc1cc(C(F)(F)F)c2nc1-c1nnc(o1)C(O)(C(F)(F)F)CCCOC[C@@H]1CCCN21 (stereo partly drawn) [Compound 147, (12S)-20-amino-6,18-bis(trifluoromethyl)-10,22-dioxa-3,4,16,21-tetraazatetracyclo[15.3.1.12,5.012,16]docosa-1(21),2,4,17,19-pentaen-6-ol]

Source: patent publication US12324802B2, “Modulators of cystic fibrosis transmembrane conductance regulator” (Vertex Pharmaceuticals Incorporated, priority 2020, dated 2025)
